Values of other authors, collected in patent US9066956B2, “Vaginal ring comprising DHEA or DHEA sulfate and optionally a release-modulating agent of the active principle, useful to increase the ovarian reserve in women and to relieve symptoms associated with menopause” (Universidad de Chile, priority 2011, dated 2015).
Read-outs that look alike come from different tables or passages of the source.

Tests used:
[1] = tested on: infertile women with diminished ovarian reserve; details: versus national U.S. IVF rates 2004

Compound | DHEA metabolized back to DHEA-S (by sulfatase hydroxysteroid) | Reduction of spontaneous abortions ([1]; first fertility center (U.S.)) | Reduction of spontaneous abortions ([1]; second fertility center (Canada)) | clinical pregnancies (women; oral DHEA 75 mg daily up to four months before IVF, control group 11%) | rate of spontaneous abortions (women; oral DHEA 75 mg daily, control group 36%) | increase of clinical pregnancy (women; oral DHEA versus control group) | daily production of DHEA-S converted to DHEA (women)
C[C@]12CC[C@H](O)CC1=CC[C@@H]1[C@@H]2CC[C@]2(C)C(=O)CC[C@@H]12 [DHEA, dehydroepiandrosterone] | 13% | 15.0% | 15.2% | 28% | 20% | at least 150% | –
dehydroepiandrosterone sulphate [DHEA-S] | – | – | – | – | – | – | 64%
